In PubChem BioAssay (NCI):
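All cell lines were grown in 96-well plates and treated with compound for 48 hours. GI50: concentration for 50% inhibition of growth. TGI marks complete inhibition of growth.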

Key:
Test in all cases: NCI-60 cell line screen, 48 h
OVCAR-8 ovarian = system: OVCAR-8 ovarian
RPMI-8226 leukemia = system: RPMI-8226 leukemia
SW-620 colon = system: SW-620 colon
MDA-MB-231 breast = system: MDA-MB-231 breast
IGROV1 ovarian = system: IGROV1 ovarian
TK-10 renal = system: TK-10 renal
786-0 renal = system: 786-0 renal
MCF7 breast = system: MCF7 breast
SNB-75 CNS = system: SNB-75 CNS
NCI-H460 lung = system: NCI-H460 lung
SF-295 CNS = system: SF-295 CNS
COLO 205 colon = system: COLO 205 colon
MDA-MB-435 = system: MDA-MB-435
OVCAR-4 ovarian = system: OVCAR-4 ovarian
MOLT-4 leukemia = system: MOLT-4 leukemia
PC-3 prostate = system: PC-3 prostate
HT29 colon = system: HT29 colon
HOP-62 NSCLC = system: HOP-62 NSCLC
M14 melanoma = system: M14 melanoma
HS 578T breast = system: HS 578T breast
CAKI-1 renal = system: CAKI-1 renal
K-562 leukemia = system: K-562 leukemia
SF-268 CNS = system: SF-268 CNS
DU-145 prostate = system: DU-145 prostate
ACHN renal = system: ACHN renal
NCI-H23 lung = system: NCI-H23 lung
OVCAR-3 ovarian = system: OVCAR-3 ovarian
SNB-19 CNS = system: SNB-19 CNS
UACC-257 melanoma = system: UACC-257 melanoma
KM12 colon = system: KM12 colon
OVCAR-5 ovarian = system: OVCAR-5 ovarian
HCT-116 colon = system: HCT-116 colon
HOP-92 NSCLC = system: HOP-92 NSCLC
MALME-3M melanoma = system: MALME-3M melanoma
HCT-15 colon = system: HCT-15 colon
SK-OV-3 ovarian = system: SK-OV-3 ovarian
T-47D breast = system: T-47D breast
RXF 393 renal = system: RXF 393 renal
HCC-2998 colon = system: HCC-2998 colon
SK-MEL-2 melanoma = system: SK-MEL-2 melanoma
NCI/ADR-RES ovarian = system: NCI/ADR-RES ovarian
UO-31 renal = system: UO-31 renal

Work on `CNc1ccc(C(=O)CC(O)CCC(C)C2OC(=O)CC(O)CC(=O)CC(O)CC(O)CC(O)CC(O)CC3(O)CC(O)C(C(=O)NCCN(C)C)C(CC(OC4OC(C)C(O)C(NC(=O)CN5CCN(CCO)CC5)C4O)/C=C/C=C/C=C/C=C\C=C/C=C/C=C/C2C)O3)cc1` (configuration not stated) yielded a GI50 (OVCAR-8 ovarian) of 2500 nM, a TGI (OVCAR-8 ovarian) greater than 50000 nM and a GI50 (RPMI-8226 leukemia) greater than 50000 nM. It also gave a TGI (RPMI-8226 leukemia) greater than 50000 nM, a GI50 (SW-620 colon) of 728 nM and a TGI (SW-620 colon) greater than 50000 nM. For the same molecule, the GI50 (MDA-MB-231 breast) was 832 nM, the TGI (MDA-MB-231 breast) was 2910 nM and the GI50 (IGROV1 ovarian) was greater than 50000 nM. For the same molecule, the TGI (IGROV1 ovarian) was greater than 50000 nM, the GI50 (TK-10 renal) was 143 nM and the GI50 (786-0 renal) was 197 nM. For the same molecule, the TGI (786-0 renal) was greater than 50000 nM, the GI50 (MCF7 breast) was 219 nM and the TGI (MCF7 breast) was greater than 50000 nM. The GI50 (SNB-75 CNS) was greater than 22300 nM, the TGI (SNB-75 CNS) was greater than 50000 nM and the GI50 (NCI-H460 lung) was 242 nM. It also gave a TGI (NCI-H460 lung) of 1740 nM, a GI50 (SF-295 CNS) of 706 nM and a TGI (SF-295 CNS) of 1640 nM. For the same molecule, the GI50 (COLO 205 colon) was 508 nM, the TGI (COLO 205 colon) was 1810 nM and the GI50 (MDA-MB-435) was 692 nM. The TGI (MDA-MB-435) was 1910 nM, the GI50 (OVCAR-4 ovarian) was 1650 nM and the TGI (OVCAR-4 ovarian) was greater than 17400 nM. It also gave a GI50 (MOLT-4 leukemia) of 424 nM, a TGI (MOLT-4 leukemia) greater than 21400 nM and a GI50 (PC-3 prostate) of 296 nM. The TGI (PC-3 prostate) was greater than 50000 nM, the GI50 (HT29 colon) was 931 nM and the TGI (HT29 colon) was greater than 11600 nM. The GI50 (HOP-62 NSCLC) was 1170 nM, the TGI (HOP-62 NSCLC) was 6210 nM and the GI50 (M14 melanoma) was 494 nM. For the same molecule, the TGI (M14 melanoma) was 1510 nM, the GI50 (HS 578T breast) was greater than 50000 nM and the TGI (HS 578T breast) was greater than 50000 nM. The GI50 (CAKI-1 renal) was 192 nM, the TGI (CAKI-1 renal) was greater than 18700 nM and the GI50 (K-562 leukemia) was 163 nM. For the same molecule, the TGI (K-562 leukemia) was 1350 nM, the GI50 (SF-268 CNS) was 193 nM and the TGI (SF-268 CNS) was greater than 50000 nM. The GI50 (DU-145 prostate) was 161 nM, the TGI (DU-145 prostate) was 610 nM and the GI50 (ACHN renal) was 1120 nM. The TGI (ACHN renal) was 2440 nM, the GI50 (NCI-H23 lung) was 14800 nM and the TGI (NCI-H23 lung) was 47300 nM. It also gave a GI50 (OVCAR-3 ovarian) of 768 nM, a TGI (OVCAR-3 ovarian) of 3030 nM and a GI50 (SNB-19 CNS) of 1620 nM. It also gave a TGI (SNB-19 CNS) greater than 50000 nM, a GI50 (UACC-257 melanoma) of 935 nM and a TGI (UACC-257 melanoma) of 2790 nM. The GI50 (KM12 colon) was 165 nM, the TGI (KM12 colon) was 490 nM and the GI50 (OVCAR-5 ovarian) was 3590 nM. The TGI (OVCAR-5 ovarian) was greater than 30600 nM, the GI50 (HCT-116 colon) was 546 nM and the TGI (HCT-116 colon) was 2130 nM. The TGI (HOP-92 NSCLC) was greater than 50000 nM, the GI50 (MALME-3M melanoma) was 96.6 nM and the TGI (MALME-3M melanoma) was 300 nM. The GI50 (HCT-15 colon) was 2920 nM, the TGI (HCT-15 colon) was greater than 50000 nM and the GI50 (SK-OV-3 ovarian) was 2380 nM. The TGI (SK-OV-3 ovarian) was greater than 50000 nM, the GI50 (T-47D breast) was 1080 nM and the TGI (T-47D breast) was greater than 50000 nM. The GI50 (RXF 393 renal) was greater than 50000 nM, the TGI (RXF 393 renal) was greater than 50000 nM and the GI50 (HCC-2998 colon) was 1910 nM. It also gave a TGI (HCC-2998 colon) of 4260 nM, a GI50 (SK-MEL-2 melanoma) of 19900 nM and a TGI (SK-MEL-2 melanoma) greater than 50000 nM. It also gave a GI50 (NCI/ADR-RES ovarian) of 2070 nM, a TGI (NCI/ADR-RES ovarian) of 14200 nM and a GI50 (UO-31 renal) of 2170 nM. It also gave a TGI (UO-31 renal) greater than 50000 nM.
